Assay results as given in the NIST ThermoML archive (doi:10.1021/acs.jced.7b01101).

What was measured:
[1] = refractive index (Na D-line) (dimensionless); conditions: 293.15 K; 100 kPa; Liquid; Standard Abbe refractometry
[2] = 100 kPa, Liquid; for viscosity: Concentric cylinders viscometry
[3] = wn = mass fraction of the nth substance listed; conditions: 100 kPa, Liquid; for electrical conductivity: 293.15 K, Alternating current cell with electrodes; for viscosity / mass density: 298.15 K; for viscosity: Concentric cylinders viscometry; for mass density: Vibrating tube method
[4] = refractive index (Na D-line) (dimensionless); wn = mass fraction of the nth substance listed; conditions: 293.15 K, 100 kPa, Liquid, Standard Abbe refractometry
[5] = refractive index (Na D-line) (dimensionless); an = ratio of the nth substance listed; conditions: 293.15 K, 100 kPa, Liquid, Standard Abbe refractometry
[6] = an = ratio of the nth substance listed; conditions: 100 kPa, Liquid; for electrical conductivity: 293.15 K, Alternating current cell with electrodes; for viscosity / mass density: 298.15 K; for viscosity: Concentric cylinders viscometry; for mass density: Vibrating tube method

NCCO [2-aminoethan-1-ol]
Conditions	refractive index
[1]	1.456

[2]
Conditions	electrical conductivity [S/m]	mass density [kg/m3]
293.15 K, Alternating current cell with electrodes	0.0031	–
298.15 K, Vibrating tube method	–	1012

Conditions	viscosity [mPa·s]
[2], 298.15 K	18.75

NCCO [2-aminoethan-1-ol] + O
Conditions	electrical conductivity, [3] [S/m]	electrical conductivity, [6] [S/m]	mass density, [3] [kg/m3]	mass density, [6] [kg/m3]	refractive index, [4]	refractive index, [5]	viscosity, [3] [mPa·s]	viscosity, [6] [mPa·s]
a2 = 1.5	–	0.046	–	1018.3	–	1.3854	–	3.5
a2 = 2.333	–	0.072	–	1012.9	–	1.372	–	2.6
a2 = 4	–	0.102	–	1007.1	–	1.3587	–	1.7
w1 = 0.2	0.102	–	1007.1	–	1.3587	–	1.7	–
w1 = 0.3	0.072	–	1012.9	–	1.3718	–	2.6	–
w1 = 0.4	0.0461	–	1018.3	–	1.3852	–	3.5	–
w1 = 0.5	0.029	–	1022.1	–	1.3975	–	5.4	–
w1 = 0.6	0.0111	–	1025.1	–	1.4126	–	9.67	–
w1 = 0.7	0.0089	–	1026.5	–	1.423	–	12.26	–
w1 = 0.8	0.0034	–	1024.7	–	1.4368	–	20.39	–
w1 = 0.9	0.0032	–	1020.4	–	1.4444	–	19.45	–
w1 = 1	0.0031	–	1012	–	1.456	–	18.75	–

O [water]
Conditions	refractive index
[1]	1.333

Conditions	viscosity [mPa·s]
[2], 298.15 K	0.89

O [water] + NCCO
w2 = 0
Conditions	refractive index	viscosity [mPa·s]
[3]	–	0.89
[4]	1.333	–
